Measurements published in PMC4171606, “A novel copper(I) complex induces ER-stress-mediated apoptosis and sensitizes B-acute lymphoblastic leukemia cells to chemotherapeutic agents” (Oncotarget, 2014).

What was measured:
Format in all cases: cell-based, human
[1] = test system: caspase-9, caspase-3 and -7; assay: Western blot, caspase-9, cleaved caspase-7, caspase-3 and PARP; details: SEM and RS4;11, CP 2.5 μM
Method: FIGURE 2 CP induces caspase-dependent apoptosis without mitochondria involvement (A) Assessment of mitochondrial membrane potential (ΔΨmt) after treatment of RS4;11 and SEM cells with CP (2.5 μM) for the indicated times. Cells were stained with the fluorescent probe JC-1. Data are represented as mean ± S.E.M. of three independent experiments. (B) Flow cytometric analysis of RS4;11 and SEM cells treated with CP (2.5 μM) for 24 h showing cytochrome c labeled with a monoclonal antibody conjugated to FITC. Representative image of three experiments with similar results. (C) Cells were incubated with CP 2.5 μM and 5 μM in the presence or absence of the pan-caspase inhibitor z-VAD.fmk (100 μM). Cell viability was determined after 48 h by MTT assay. Data are represented as mean ± S.E.M. of three independent experiments performed in triplicate. *p<0.01 vs CP alone. (D) Western blot analysis of Bcl-2, cleaved caspase-12, caspase-9, cleaved caspase-7, caspase-3 and PARP after treatment of SEM and RS4;11 cells with CP (2.5 μM) for the indicated times. To confirm equal protein loading, each membrane was stripped and reprobed with anti-β-actin antibody. […]
Cells were treated with CP and, after different times, were collected, centrifuged and washed with ice cold phosphate-buffered saline (PBS). […] The protein concentration in the supernatant was determined using the BCA protein assay (Pierce, Italy). […]

[2] = test system: PHA stimulated healthy PBMC; assay: MTT growth inhibition, 72 h; details: mean ± SE
[3] = test system: Blast cells from B-ALL patients; assay: MTT growth inhibition on primary cultures, 24 h; details: B-acute lymphoblastic leukemia patients primary cultures
Method: CP growth inhibitory activity was measured on primary cultures derived from pediatric patients affected by B-acute lymphoblastic leukemia. […] In particular, in resting and in PHA-stimulated PBMC, and in CD19^+ cells GI50 was higher than 10 μM confirming that CP preferentially affects leukemia cells.
FIGURE 6 CP effects on B-ALL primary cultures (A) Blast cells from six B-ALL patients were incubated for 24 h with different concentrations of CP. For the sake of comparison CD19^+ cells from peripheral blood of healthy donors, and PBMC were also incubated with CP in the presence or absence of PHA. Cell viability were assayed by MTT analysis. Data are represented as mean ± S.E.M of four independent experiments. […] Cell viability was evaluated on the whole population by flow cytometry after staining the cells with Annexin-V-FITC and PI. are represented as mean ± S.E.M of 3 independent experiments. […]
The human leukemia cell lines RS 4;11, SEM, REH, RCH-ACV, MHH-CALL2, Jurkat, CCRF-CEM, HSB2, HL-60, K562, THP-1, MV4;11 were purchased from the American Type Culture Collection. […] The cytotoxic activity of CP was determined using a standard 3-[4,5-dimethylthiazol-2-yl]-2,5-diphenyltetrazodium bromide (MTT) based colorimetric assay (Sigma-Aldrich, Italy). […] After different times, cell survival was determined by the addition of an MTT solution as previously described. […]

[4] = test system: GRP78; assay: Western blot, ER stress marker GRP78
Method: Moreover we found an increase in CHOP expression starting from 3 h of CP treatment. […] Whilst GRP78, due to its chaperon activity, exerts a protective function, CHOP promotes ER-stress cell death, thus the rapid activation of pro-death signals and the late activation of pro-survival chaperone GRP78 could explain the commitment toward apoptosis induced by CP. Moreover, in unresolvable stress conditions, an increased CHOP expression has been correlated to the induction of the expression of many apoptotic genes and to the down-regulation prosurvival genes, such as Bcl-2 [30].
FIGURE 4 CP induces ER stress Western Blot analysis showing expression of GRP78 and CHOP in SEM (A) and in RS4;11 (B) cells. Cells were treated with CP 2.5 μM for the indicated times. (C) PCR analysis showing the induction of XBP1 splicing in SEM and RS4;11 cells. Cells were treated with CP (2.5 μM) or Tunicamycin (2 μg/ml) as positive control for 12 h.
Cells were treated with CP and, after different times, were collected, centrifuged and washed with ice cold phosphate-buffered saline (PBS). The pellet was then resuspended in lysis buffer as described. The protein concentration in the supernatant was determined using the BCA protein assay (Pierce, Italy). […]

[5] = test system: GRP78, CHOP, PARP, caspase-3; assay: Western blot on blast cells from B-ALL patients; details: CP 2.5 μM, 12 h
Method: FIGURE 6 CP effects on B-ALL primary cultures (A) Blast cells from six B-ALL patients were incubated for 24 h with different concentrations of CP. For the sake of comparison CD19^+ cells from peripheral blood of healthy donors, and PBMC were also incubated with CP in the presence or absence of PHA. Cell viability were assayed by MTT analysis. Data are represented as mean ± S.E.M of four independent experiments. (B) Bone marrow cells from healthy donors were treated for 24 h with CP (2.5 μM and 5 μM). Cell viability was evaluated on the whole population by flow cytometry after staining the cells with Annexin-V-FITC and PI. are represented as mean ± S.E.M of 3 independent experiments. (C) Western Blot analysis of GRP78 and CHOP expression, PARP cleavage and caspase-3 activation, on protein extracts of blast cells from B-ALL patients treated with CP (2.5 μM) for 12 h.
Cells were treated with CP and, after different times, were collected, centrifuged and washed with ice cold phosphate-buffered saline (PBS). The pellet was then resuspended in lysis buffer as described. The protein concentration in the supernatant was determined using the BCA protein assay (Pierce, Italy). Equal amounts of protein (10 μg) were resolved using SDS-PAGE gel electrophoresis (Criterion precast Tris-HCl gel, BioRad, Italy) and transferred to PVDF Hybond-p membranes (GE Healthcare, Italy). […]

Q: With `F[P-](F)(F)(F)(F)F.OCP(CO)CO.OCP(CO)CO.OCP(CO)CO.OCP(CO)CO.[Cu+]` [CP, [Cu(thp)4][PF6]] as the compound, how does the “onset of caspase-9 activation and cleavage of caspase-3 and -7” value [1] read?
A: The value was no less than 6 h.

Q: What about the GI50 [2] of the same compound?
A: Its GI50 is 16.9 ± 1.6 µM.

Q: And the GI50 [3]?
A: The GI50 was 2.3 µM.

Q: What about the “time of remarkable increase of GRP78 expression” value ([4]; RS4;11, CP 2.5 μM) of the same compound?
A: Its value is 12 h.

Q: And the “time of remarkable increase of GRP78 expression” value ([4]; SEM, CP 2.5 μM)?
A: The value was 6 h.

Q: And the “caspase-3 activation and PARP cleavage” value ([5]; patient cells)?
A: Its value is “induced caspase-3 activation and PARP cleavage”.

Q: What about the “GRP-78 and CHOP expression” value ([5]; primary cultures) of the same compound?
A: The value was “significant increase in the expression of both these markers”.
